Like-named read-outs stand apart in the source and are kept apart here.
What was measured:
THLE-2 hepatocytes = experiment: MTT cytotoxicity test, hepatocytes; type: cell-based, human; settings: THLE-2 cells, 100 µg/mL and lower concentrations, 48 h
Protocol: (§1) Distigmasterol-modified acylglycerols were examined for their cytotoxicity in normal human cells originating from the digestive system. The cells were treated for 48 h with increasing concentrations of dStigMAs, and cell proliferation, metabolic activity, and viability were assayed using the MTT test. The cytotoxic effects of the analyzed dStigMAs on CCD 841CoN colon mucosa cells, FHs 74 Int small intestine epithelial cells, and THLE-2 hepatocytes are presented in Figure 6.
(§2) The cytotoxicity of dStigMAs was analyzed at the maximum concentration of 100 µg/mL, which corresponded to doses of 83 µM of dStigC-PA, 81 µM of dStigC-OA, 76 µM of dStigS-PA, and 75 µM of dStigS-OA. The minimum doses tested were 10,000-fold lower. Cell viability and metabolic activity were assessed using the MTT test following the procedure described by Olejnik et al..
(§3) Figure 6 Effect of dStigMAs on (A) normal small intestinal epithelial cells (FHs 74 Int, ATCC® CCL241™), (B) normal colonic epithelial cells (CCD 841CoN, ATCC® CRL-179™), and (C) normal liver cells (THLE-2, ATCC® CRL-2706™).

[1] = test system: CCD 841CoN colon mucosa cells; experiment: MTT cytotoxicity test, colon mucosa cells; type: cell-based, human; settings: CCD 841CoN cells, 100 µg/mL and lower concentrations, 48 h
Protocol: as §1, §2, §3

[2] = test system: FHs 74 Int small intestine epithelial cells; experiment: MTT cytotoxicity test, small intestinal epithelial cells; type: cell-based, human; settings: FHs 74 Int cells; for cytotoxicity (in words): 100 µg/mL and lower concentrations; for cytotoxicity (in words) / EC50: 48 h; for dose at which first cytotoxic symptoms were noted: 48 h treatment; for EC50: Homo sapiens, FHs74Int, read-out: median effective concentration (EC50)
Protocol: as §1, §2, §3

[3] = MTT cytotoxicity test, hepatocytes; type: cell-based, human; settings: human, THLE-2 normal liver cells (hepatocytes), liver cells (THLE-2), 100 µg/mL, read-out: cell proliferation and viability at the maximum dose
Protocol: as §1, §2, §3

[4] = MTT cytotoxicity test, colon mucosa cells; type: cell-based, human; settings: human, CCD 841CoN normal colonic epithelial cells, colon cells (CCD 841CoN), 100 µg/mL, read-out: cell proliferation and viability at the maximum dose
Protocol: as §1, §2, §3

[5] = MTT cytotoxicity test, small intestinal epithelial cells; type: cell-based, human; settings: human, FHs 74 Int normal small intestinal epithelial cells, FHs 74 Int cells, 100 µg/mL, 48 h, read-out: cell viability at the maximum concentration tested
Protocol: as §1, §2, §3

Structure (SMILES) | cytotoxicity (in words) (THLE-2 hepatocytes) | cytotoxicity (in words) [1] | cytotoxicity (in words) [2] | melting point | viability at 48 h, 100 µg/mL [3] | viability at 48 h, 100 µg/mL [4] | viability at 48 h, 100 µg/mL [5] | dose at which first cytotoxic symptoms were noted [2] | EC50 [2] | EC50 ([2]; value in brackets)
CCCCCCCCC=CCCCCCCCC(=O)OCC(COC(=O)CCC(=O)OC1CCC2(C)C(=CCC3C2CCC2(C)C(C(C)C=CC(CC)C(C)C)CCC32)C1)OC(=O)CCC(=O)OC1CCC2(C)C(=CCC3C2CCC2(C)C(C(C)C=CC(CC)C(C)C)CCC32)C1 (stereo not shown) [dStigS-OA, 2,3-Distigmasterylsuccinoyl-1-Oleoyl-sn-Glycerol] | no cytotoxic activity | no cytotoxic activity | no cytotoxic activity | – | – | – | – | – | – | –
CCCCCCCCCCCCCCCC(=O)OCC(COC(=O)CCC(=O)O[C@H]1CC[C@@]2(C)C(=CC[C@H]3[C@@H]4CC[C@H]([C@H](C)/C=C/[C@@H](CC)C(C)C)[C@@]4(C)CC[C@@H]32)C1)OC(=O)CCC(=O)O[C@H]1CC[C@@]2(C)C(=CC[C@H]3[C@@H]4CC[C@H]([C@H](C)/C=C/[C@@H](CC)C(C)C)[C@@]4(C)CC[C@@H]32)C1 (stereo partly shown) [dStigS-PA, 1,2-Distigmasterylsuccinoyl-3-Palmitoyl-sn-Glycerol] | no cytotoxic activity | no cytotoxic activity | no cytotoxic activity | 91 to 93 °C | – | – | – | – | – | –
CCCCCCCCC=CCCCCCCCC(=O)OCC(COC(=O)OC1CCC2(C)C(=CCC3C2CCC2(C)C(C(C)C=CC(CC)C(C)C)CCC32)C1)OC(=O)OC1CCC2(C)C(=CCC3C2CCC2(C)C(C(C)C=CC(CC)C(C)C)CCC32)C1 (stereo not shown) [dStigC-OA, 2,3-Distigmasterylcarbonoyl-1-Oleoyl-sn-Glycerol] | – | – | – | – | 48.9% | 59.4% | 20.2% | 0.1 µg/mL | 0.47 µg/mL | 381 nM
CCCCCCCCCCCCCCCC(=O)OCC(COC(=O)O[C@H]1CC[C@@]2(C)C(=CC[C@H]3[C@@H]4CC[C@H]([C@H](C)/C=C/[C@@H](CC)C(C)C)[C@@]4(C)CC[C@@H]32)C1)OC(=O)O[C@H]1CC[C@@]2(C)C(=CC[C@H]3[C@@H]4CC[C@H]([C@H](C)/C=C/[C@@H](CC)C(C)C)[C@@]4(C)CC[C@@H]32)C1 (stereo partly shown) [dStigC-PA, 1,2-Distigmasterylcarbonoyl-3-Palmitoyl-sn-Glycerol] | – | – | – | – | 56.3% | 53.8% | 17.5% | 0.1 µg/mL | 0.32 µg/mL | 266 nM

Reference: article PMC8617691, “Distigmasterol-Modified Acylglycerols as New Structured Lipids—Synthesis, Identification and Cytotoxicity” (Molecules, 2021)
